From patent US20260347351A1, “INHIBITORS OF PDE11A4 AND METHODS OF USING SAME” (UNIVERSITY OF MARYLAND, BALTIMORE, priority 2022, published 2026)
≈ marks a conversion by molar mass, not a printed value. Each block holds one compound with its values, some of them ahead of it.

How the values were obtained:
PDE11A4 = target: T1, PDE11A4 (Homo sapiens, UniProt Q9HCR9); assay: In vitro PDE11A4 enzyme inhibition assay (Ba(OH)2 precipitation method); format: biochemical; settings: for IC50: in vitro
T1 construct: purchased BPS Bioscience
Protocol: In vitro enzyme assays are conducted via the Ba(OH)2 precipitation method of Wang et al. using commercially-available recombinant PDEs representing all 11 PDE families. Assays for PDE11A inhibition are carried out with both 200 nM cAMP and 100 nM cGMP. Substrate concentrations for the remaining PDEs are 100 nM cGMP (PDE1C), 1 μM cGMP (PDE2A), 30 nM cGMP (PDE3B), 120 nM cAMP (PDE4D), 500 nM cGMP (PDE5A), […] (PDE6C), 15 nM cAMP (PDE7A), 10 nM cAMP (PDE8A), 70 nM cGMP (PDE9A), and 30 nM cAMP (PDE10A).
These compounds were profiled further using additional commercially available analogs and by in vitro ADME characteristics. The synthesis of these analogs is illustrated in the schemes of FIGS. 24-26. […] In the rightmost column of FIG. 27B, percent (%) values refer to percent inhibition, and non-percent values refer to IC50 values.
In vitro enzyme assays were conducted via the Ba(OH)2 precipitation method of Wang et al. using recombinant human PDE3A, PDE4D3, PDE5A, PDE6C, PDE10A1, and PDE11A4 (BPS Bioscience)). Substrate concentrations used were 15 nM cGMP (PDE3A), 18 nM cAMP (PDE3A) 200 nM cAMP (PDE4D3), 500 nM cGMP (PDE5A), 1.7 μM cGMP (PDE6C), 30 nM cAMP (PDE10A), […] (PDE10A), 100 nM cGMP (PDE11A4) and 240 nM cAMP (PDE11A4). […] Inhibitor concentrations of 4, 13.7, 40, 123, 370, 1110, 3330 and 10,000 nM were used. The values reported are means of at least three independent experiments. Substrate concentrations were ~0.1×KM for each enzyme; thus, IC50 values approximate the Ki values.

mPDE11A4 = mPDE11A4 (Mus musculus, UniProt P0C1Q2); assay: Reversal of aging-like punctate accumulations of EmGFP-mPDE11A4 in HT-22 hippocampal cells; format: cell-based; settings: HT-22 cells overexpressing EmGFP-mPDE11A4
Protocol: In vivo, expression of PDE11A4 increases in the hippocampus across the lifespan in humans and rodents, resulting in age-related punctate accumulations of PDE11A4 protein in “ghost axons.” These age-related PDE11A4 accumulations were mimicked by overexpressing mouse PDE11A4 in mouse HT-22 hippocampal cells. FIGS. 31A-31B is an image of HT-22 cells overexpressing EmGFP-mPDE11A4 treated with the vehicle DMSO (FIG. 30A) or 1 uM 25b (FIG. 30B).
See FIGS. 35A and 35B, which show images of HT-22 cells overexpressing EmGFP-mPDE11A4 treated with the vehicle DMSO (35A) or 1 uM 25b (35B).

CYP2D6 = CYP2D6 (Homo sapiens, UniProt P10635); assay: CYP2D6 inhibition (fluorescent substrate); format: in vitro ADME; settings: Example 4 Table 1
Protocol: (§1) CYP inhibition: Compounds are assessed for their ability to inhibit the three major human cytochrome P450 enzymes, 3A4, 2D6 and 2C9. Expressed enzymes are used to minimize non-specific binding and membrane partitioning issues. The 3A4 assay uses testosterone as a substrate and is analyzed by LC/MS/MS on a Waters TQ instrument using positive or negative electrospray ionization. The 2D6 and 2C9 assays use fluorescent substrates and are analyzed on an Envision Plate Reader.

CYP3A4 = CYP3A4 (Homo sapiens, UniProt P08684); assay: CYP3A4 inhibition (testosterone substrate); format: in vitro ADME; settings: Example 4 Table 1
Protocol: as §1

[1] = Kinetic aqueous solubility, pH 7.4; format: physicochemical; settings: aqueous buffer, PBS, Example 4 Table 1
Protocol: The mixture is agitated at 25° C. for 1 hour, filtered and evaluated by UV and/or LCMSMS analysis. Data are reported as mg/mL and μM concentration.

[2] = Metabolic stability in mouse liver microsomes; format: in vitro ADME
Protocol: (§2) Metabolic stability: Samples at 37° C. in the presence of human or mouse liver microsomes and NADPH according to standard methods. Aliquots are removed at 5 time points, quenched and analyzed (LCMS/MS and MS/MS as needed) for remaining test compound, along with a positive control. Microsomal protein content is adjusted to give consistent results. Data are reported as half-life and clearance. Assay acceptance criteria is 20% for all standards and 25% for the LLOQ.

[3] = Metabolic stability in human liver microsomes; format: in vitro ADME
Protocol: as §2

MDCK cell monolayers = assay: MDCK / MDCK-MDR1 permeability and efflux; format: in vitro ADME; settings: Example 4 Table 1
Protocol: MDCK permeability: MDCK cell monolayers (Absorption Systems, Malvern, PA) are grown to confluence on collagen-coated microporous membranes in 12-well assay plates. Assay buffer consists of Hanks' balanced salt solution containing 10 mM HEPES and 15 mM glucose at pH—7.4. The buffer in the receiver chamber also contains 1% bovine serum albumin. Compounds are tested at a final concentration of 5 μM in the assay buffer. Cell monolayers are dosed on the apical side (A-B) or basolateral side (B-A) and incubated at 37° C. with 5% CO2 in a humidified incubator. Samples are taken from the donor and receiver chambers at 120 minutes. Each determination is performed in duplicate. The flux of Lucifer yellow is also measured post-experimentally for each monolayer to ensure no damage is inflicted to the monolayer during flux period. Samples are assayed on a Waters TQ LC/MS/MS using positive or negative electrospray ionization.

CYP2C9 = CYP2C9 (Homo sapiens, UniProt P11712); assay: CYP2C9 inhibition (fluorescent substrate); format: in vitro ADME; settings: Example 4 Table 1
Protocol: as §1

T1 sequence (Q9HCR9 whole entry): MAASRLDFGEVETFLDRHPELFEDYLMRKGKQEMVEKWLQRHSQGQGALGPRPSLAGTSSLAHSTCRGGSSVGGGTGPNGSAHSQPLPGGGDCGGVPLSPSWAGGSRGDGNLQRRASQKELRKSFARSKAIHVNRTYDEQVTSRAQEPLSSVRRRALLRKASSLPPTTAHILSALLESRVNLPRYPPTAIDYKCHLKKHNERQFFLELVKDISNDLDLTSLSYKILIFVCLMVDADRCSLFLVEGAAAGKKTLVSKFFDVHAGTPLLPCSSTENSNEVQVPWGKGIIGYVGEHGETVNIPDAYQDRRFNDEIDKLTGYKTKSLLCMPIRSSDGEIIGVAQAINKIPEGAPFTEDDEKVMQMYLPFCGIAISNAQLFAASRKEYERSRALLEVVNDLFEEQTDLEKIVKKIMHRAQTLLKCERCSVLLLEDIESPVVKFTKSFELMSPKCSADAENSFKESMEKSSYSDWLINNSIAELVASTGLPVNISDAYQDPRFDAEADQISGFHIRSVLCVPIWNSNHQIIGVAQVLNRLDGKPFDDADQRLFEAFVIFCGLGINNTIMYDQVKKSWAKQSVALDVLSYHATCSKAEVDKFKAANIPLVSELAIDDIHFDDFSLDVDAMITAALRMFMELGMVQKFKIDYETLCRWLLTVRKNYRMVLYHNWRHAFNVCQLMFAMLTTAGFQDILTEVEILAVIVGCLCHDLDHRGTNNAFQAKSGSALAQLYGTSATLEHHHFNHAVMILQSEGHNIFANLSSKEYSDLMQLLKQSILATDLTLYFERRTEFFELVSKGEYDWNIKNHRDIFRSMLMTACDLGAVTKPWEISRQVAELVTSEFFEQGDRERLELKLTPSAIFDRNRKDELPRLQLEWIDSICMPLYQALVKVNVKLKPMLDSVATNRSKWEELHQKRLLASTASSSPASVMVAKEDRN
Sequence of mPDE11A4 (P0C1Q2 whole entry): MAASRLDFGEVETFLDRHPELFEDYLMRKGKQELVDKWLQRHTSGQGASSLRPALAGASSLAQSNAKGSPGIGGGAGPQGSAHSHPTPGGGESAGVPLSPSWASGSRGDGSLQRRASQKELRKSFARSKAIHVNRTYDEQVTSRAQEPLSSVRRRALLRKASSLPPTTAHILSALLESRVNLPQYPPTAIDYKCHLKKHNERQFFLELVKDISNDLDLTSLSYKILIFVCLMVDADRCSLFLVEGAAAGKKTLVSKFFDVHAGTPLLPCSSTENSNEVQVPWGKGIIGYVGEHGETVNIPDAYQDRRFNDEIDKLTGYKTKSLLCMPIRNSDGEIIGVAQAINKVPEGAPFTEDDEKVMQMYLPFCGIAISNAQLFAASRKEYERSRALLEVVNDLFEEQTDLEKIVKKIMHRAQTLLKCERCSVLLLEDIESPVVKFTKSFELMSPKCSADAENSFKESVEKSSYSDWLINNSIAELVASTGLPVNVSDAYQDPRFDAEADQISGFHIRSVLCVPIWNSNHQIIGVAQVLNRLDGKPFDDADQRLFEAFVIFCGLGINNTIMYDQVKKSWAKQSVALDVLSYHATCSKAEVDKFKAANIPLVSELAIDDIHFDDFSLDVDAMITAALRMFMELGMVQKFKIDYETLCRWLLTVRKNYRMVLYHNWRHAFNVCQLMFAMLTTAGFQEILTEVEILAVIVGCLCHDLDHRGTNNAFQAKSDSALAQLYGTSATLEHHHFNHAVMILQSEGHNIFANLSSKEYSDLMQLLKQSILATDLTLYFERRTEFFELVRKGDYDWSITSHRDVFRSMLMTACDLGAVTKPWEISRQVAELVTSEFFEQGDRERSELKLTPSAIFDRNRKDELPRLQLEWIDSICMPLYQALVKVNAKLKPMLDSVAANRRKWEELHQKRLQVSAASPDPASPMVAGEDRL
Sequence of CYP2C9 (P11712 whole entry): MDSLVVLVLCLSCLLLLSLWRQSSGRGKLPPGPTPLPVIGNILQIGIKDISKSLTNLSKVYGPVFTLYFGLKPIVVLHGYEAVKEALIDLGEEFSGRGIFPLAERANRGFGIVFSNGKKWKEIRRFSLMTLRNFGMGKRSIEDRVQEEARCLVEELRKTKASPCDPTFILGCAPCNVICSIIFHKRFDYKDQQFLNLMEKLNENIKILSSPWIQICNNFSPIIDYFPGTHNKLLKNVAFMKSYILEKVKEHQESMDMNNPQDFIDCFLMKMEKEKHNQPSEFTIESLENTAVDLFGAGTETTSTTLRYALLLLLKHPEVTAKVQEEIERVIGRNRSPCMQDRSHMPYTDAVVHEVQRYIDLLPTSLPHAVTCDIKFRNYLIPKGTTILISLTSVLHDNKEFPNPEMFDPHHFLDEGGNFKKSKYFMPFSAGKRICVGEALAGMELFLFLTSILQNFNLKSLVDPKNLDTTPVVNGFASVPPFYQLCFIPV
Sequence of CYP3A4 (P08684 whole entry): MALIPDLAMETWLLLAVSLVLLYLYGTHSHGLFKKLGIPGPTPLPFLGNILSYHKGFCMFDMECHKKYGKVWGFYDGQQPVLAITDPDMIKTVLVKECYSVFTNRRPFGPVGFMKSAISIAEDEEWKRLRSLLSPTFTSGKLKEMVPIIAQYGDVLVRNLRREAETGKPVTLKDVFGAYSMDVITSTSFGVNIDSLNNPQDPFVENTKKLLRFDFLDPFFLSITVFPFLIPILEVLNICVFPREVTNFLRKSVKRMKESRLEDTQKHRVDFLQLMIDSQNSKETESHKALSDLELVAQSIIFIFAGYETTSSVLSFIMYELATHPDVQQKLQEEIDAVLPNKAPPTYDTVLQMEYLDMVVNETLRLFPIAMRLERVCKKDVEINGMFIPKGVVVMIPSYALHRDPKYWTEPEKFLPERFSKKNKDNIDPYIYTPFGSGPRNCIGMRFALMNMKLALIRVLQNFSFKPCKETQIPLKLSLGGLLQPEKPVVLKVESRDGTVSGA
Sequence of CYP2D6 (P10635 whole entry): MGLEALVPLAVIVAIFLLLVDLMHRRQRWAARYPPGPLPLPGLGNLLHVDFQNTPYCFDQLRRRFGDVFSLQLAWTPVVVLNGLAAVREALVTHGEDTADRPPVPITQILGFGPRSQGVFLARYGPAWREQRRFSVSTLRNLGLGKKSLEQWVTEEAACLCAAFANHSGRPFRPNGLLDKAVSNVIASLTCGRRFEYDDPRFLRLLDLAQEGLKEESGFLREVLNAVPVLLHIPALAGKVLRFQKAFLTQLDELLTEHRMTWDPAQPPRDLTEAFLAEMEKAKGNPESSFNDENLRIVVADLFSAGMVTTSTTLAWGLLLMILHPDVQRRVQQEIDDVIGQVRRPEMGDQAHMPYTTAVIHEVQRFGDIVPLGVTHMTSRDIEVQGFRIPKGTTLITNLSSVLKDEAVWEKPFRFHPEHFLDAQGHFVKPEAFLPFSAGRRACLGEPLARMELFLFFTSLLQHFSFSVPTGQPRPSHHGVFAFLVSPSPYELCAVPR

SMILES: CCn1nccc1-c1cc(-c2ncc(C)o2)c2cnn(-c3ccccc3)c2n1 [Compound 1003]
IC50 (PDE11A4): 140 nM

SMILES: CCn1nccc1-c1cc(-c2nnc(C)o2)c2cnn(-c3ccccc3)c2n1 [Compound 1007]
IC50 (PDE11A4): 70 nM

SMILES: CN1CC(=O)N2[C@H](c3ccc4c(c3)OCO4)c3[nH]c4ccccc4c3C[C@@H]2C1=O [Tadalafil, tadalafil]
reversal of aging-like accumulations of mPDE11A4 (mPDE11A4): able to reverse these aging-like accumulations of mPDE11A4

SMILES: CCCSc1nc2c(c(=O)n1-c1ccccc1)SCC2 [BC11-38]
reversal of aging-like accumulations of mPDE11A4 (mPDE11A4): able to reverse these aging-like accumulations of mPDE11A4

Next, values leading:

IC50 (PDE11A4): 170 nM
SMILES: CCn1nccc1-c1cc(-c2nnc(C)s2)c2cnn(-c3ccccc3)c2n1 [Compound 1005]

inhibition at 0.5 µM (PDE11A4; @500 nM): 62%
SMILES: CCn1nccc1-c1cc(-c2ncc(C)s2)c2cnn(-c3ccccc3)c2n1 [Compound 1001]

IC50 (CYP2D6): > 10000 nM
IC50 (CYP3A4): 3000 nM
solubility [1]: 54 µM (≈ 21.1 µg/mL)
microsomal CLint ([2]; Example 4 Table 1, read-out: Mouse Liver Microsome Clint): > 690 µL/min/mg
half-life ([2]; Example 4 Table 1, read-out: Mouse Liver Microsome Stability t½): < 2 min
microsomal CLint ([3]; Example 4 Table 1, read-out: Human Liver Microsome Clint): > 690 µL/min/mg
half-life ([3]; Example 4 Table 1, read-out: Human Liver Microsome Stability t½): < 2 min
MDCK1 A:B (MDCK cell monolayers): 0.78
IC50 (CYP2C9): 4900 nM
SMILES: CCN(CC)C(=O)c1cc(-c2cccs2)nc2c1c(C)nn2-c1ccccc1 [Compound 3001]
